From US20130310428A1, “THERMO-STABLE, ARSENIC-FREE SYNERGISTIC BIOCIDE CONCENTRATE COMPOSITION FOR POLYMER MATRICES AND PROCESS FOR PREPARING SAME” (ISP INVESTMENTS INC., priority 2010, published 2013)

Legend:
Format in all cases: cell-based
[1] = tested on: mixture of Aspergillus niger (ATCC 9642), Aureobasidium pullulans (ATCC 15233), Chaetomium globosum (ATCC 6205), Penicillium funiculosum (ATCC 11797) and …; experiment: Fungal resistance test ASTM G-21, flexible PVC coupons; design: key: 0 is no growth; 1 is traces of growth (less than 10%); 2 is light growth (10-30%); 3 is medium growth (30-60%); 4 is maximum growth (more than 60%); details: rating at 4th week
Description: (§1) Plastic samples containing the biocide concentrate composition containing antioxidant can be prepared by mixing with commercially available flexible PVC and processing at 175° C. in a brabender. The samples are pressed to form coupons for testing purposes. A sample containing no biocide is also prepared to serve as a negative control against the samples of the present invention.
(§2) Fungal resistance tests are conducted according to ASTM G-21. Briefly, a fungal inoculum containing a mixture of Aspergillus niger (ATCC 9642), Aureobasidium pullulans (ATCC 15233), Chaetomium globosum (ATCC 6205), Penicillium funiculosum (ATCC 11797) and Trichoderma virens (ATCC 9645) is prepared to obtain a final spore concentration of about 10^5 spores/ml. The samples (in triplicate) are placed on Petri-dishes containing nutrient salts agar and incubated with the spore suspension. The samples are then incubated at 28° C. for 4 weeks and rated weekly. The fungal growth of the samples is rated on a scale of 0 to 4 where: 0 is no growth, 1 is traces of growth (less than 10%); 2 is light growth (10-30%); 3 is medium growth (30-60%) and 4 is maximum growth (more than 60%). The ratings shown in Tables 1 to 3 correspond to those at the end of the test i.e., on 4th week for three different compositions of combination of biocidal agents.

[2] = tested on: Streptoverticillium reticulum (ATCC 25607); experiment: Pink Stain test ASTM E1428, flexible PVC coupons; design: key: 0 is no stain; 1 is a trace of stain (less than 10%); 2 is light stain (10-30%); 3 is medium stain (30-50%); 4 is maximum stain (more than 50%); details: 14 days
Description: as §1
Pink Stain tests are conducted according to ASTM E1428. Briefly, an inoculum containing the microorganism Streptoverticillium reticulum (ATCC 25607) is prepared. The inoculum is streaked onto the surface of Yeast Malt Extract Agar. The samples (in triplicate) are placed on the inoculated agar and incubated at 28° C. for 14 days. The degree of staining is rated on a scale of 0-4 where: 0 is no stain; 1 is a trace of stain (less than 10%); 2 is light stain (10-30%); 3 is medium stain (30-50%) and 4 is maximum stain (more than 50%). The ratings of the pink stain test are disclosed in Tables 1 to 3 for three different synergistic biocide compositions.

[3] = tested on: mixture of A. niger (ATCC 9642) and P. funiculosum (ATCC 11797); experiment: Zone of Inhibition, flexible PVC coupons on seeded Malt agar; design: key: A zone of inhibition around the sample is rated as “+”; The absence of zone of inhibition is rated as “−”; details: 4 weeks
Description: as §1
Briefly a fungal inoculum containing a mixture of A. niger (ATCC 9642) and P. funiculosum (ATCC 11797) is prepared. The spore suspension is added to molten Malt agar to a final concentration of 10^4-10^5 spores/ml, poured onto the petri-dishes and allowed to dry. The samples are placed on the surface of the seeded agar and incubated at 28° C. for 4 weeks. A zone of inhibition around the sample is rated as “+”. The absence of zone of inhibition is rated as “−”. The results are shown in Tables 1 to 3 for three different combinations of biocidal agents.

[4] = tested on: mixture of Aspergillus niger (ATCC 9642), Aureobasidium pullulans (ATCC 15233), Chaetomium globosum (ATCC 6205), Penicillium funiculosum (ATCC 11797) and …; experiment: Fungal resistance ASTM G21 in swimming pool liner formulation; design: key: 0 is no growth; 1 is traces of growth (less than 10%); 2 is light growth (10-30%); 3 is medium growth (30-60%); 4 is maximum growth (more than 60%); details: growth rating after 4 weeks
Description: as §1, §2
A swimming pool liner formulation is selected. The individual and synergistic biocidal compositions respectively IPBC, Folpet, OBPA and Folpet+IPBC are added and processed in the brabender as described in Example 1. The efficacy data for each sample is tested according to ASTM G21. Growth ratings after 4 weeks are described in the following Table 4.

[5] = tested on: mixture of Aspergillus niger (ATCC 9642), Aureobasidium pullulans (ATCC 15233), Chaetomium globosum (ATCC 6205), Penicillium funiculosum (ATCC 11797) and …; experiment: Fungal resistance ASTM G21 in wall covering formulation; design: key: 0 is no growth; 1 is traces of growth (less than 10%); 2 is light growth (10-30%); 3 is medium growth (30-60%); 4 is maximum growth (more than 60%); details: growth rating after 4 weeks
Description: as §1, §2
A wall covering formulation is employed for evaluating the efficacy of the present biocide concentrate composition. The individual and synergistic biocidal compositions respectively IPBC, Folpet, OBPA, Folpet+IPBC, and Folpet+TBZ are added and processed in the brabender as disclosed in Example 1. The efficacy data for each sample was tested according to ASTM G21. Growth ratings after 4 weeks are described in the following Table 5.

| Compound | Fungal Resistance Test ([1]; Quantity 3000 ppm) | Pink Stain ([2]; Quantity 3000 ppm) | Zone inhibition ([3]; Quantity 3000 ppm) | Fungal Resistance Test ([4]; Quantity 2000 ppm) | Fungal Resistance Test ([5]; Quantity 2000 ppm) | Fungal Resistance Test ([1]; Quantity 500 ppm) | Pink Stain ([2]; Quantity 500 ppm) | Zone inhibition ([3]; Quantity 500 ppm) | Fungal Resistance Test ([4]; Quantity 500 ppm) | Fungal Resistance Test ([5]; Quantity 1000 ppm) | Fungal Resistance Test ([4]; Quantity 400 ppm) | Fungal Resistance Test ([5]; Quantity 600 ppm) |
| --- | --- | --- | --- | --- | --- | --- | --- | --- | --- | --- | --- | --- |
| O=C1c2ccccc2C(=O)N1SC(Cl)(Cl)Cl [Folpet, trichloromethyl-thio-phthalimide] | 1 (1 is traces of growth (less than 10%)) | 0 | − | 1 (1 is traces of growth (less than 10%)) | 3 (3 is medium growth (30-60%)) |  |  |  |  |  |  |  |
| CCCCNC(=O)OCC#CI [IPBC, 3-iodo-2-propynylbutyl-carbamate] |  |  |  |  |  | 1 (1 is traces of growth (less than 10%)) | 2 (2 is light stain (10-30%)) | + | 1 (1 is traces of growth (less than 10%)) | 2 (2 is light growth (10-30%)) |  |  |
| c1ccc2c(c1)Oc1ccccc1[As]2O[As]1c2ccccc2Oc2ccccc21 [OBPA, 10,10-oxybisphenoxarsine] |  |  |  |  |  | 0 | 0 | + |  |  | 0 | 0 |
| CCCCCCCCn1sccc1=O [OIT, 2-Octyl-4-isothiazolin-3-one] |  |  |  |  |  | 1 (1 is traces of growth (less than 10%)) | 1 (1 is a trace of stain (less than 10%)) | − |  |  |  |  |
| c1ccc2[nH]c(-c3cscn3)nc2c1 [TBZ, Thiabendazole] |  |  |  |  |  | 1 (1 is traces of growth (less than 10%)) | 2 (2 is light stain (10-30%)) | − |  |  |  |  |
